These results are taken from patent US12123028B2, “Viral inactivation methods for continuous manufacturing of antibodies” (Bayer HealthCare LLC, priority 2018, dated 2024).

The test relates to X-MuLV. Kind of test: Dual X-MuLV inactivation by low pH and detergent in mAb protein A eluate, remaining infectivity by TCID50 assay on PG-4 cells. The test is classed as cell-based, Xenotropic Murine Leukemia Virus. As to conditions: for LRF ± 95% CL: 16° C. The procedure: […] The pH adjusted eluates were then filtered by a 0.22 um filter. Various volumes of 5% detergent stock solution were then added to the filtered protein A eluates. The low pH protein A eluates containing Mega-10, Tween 80 or Tween 20 were pre-incubated at a 16° C. water bath prior to spiking with X-MuLV at a 1:20 ratio. After a thorough mixing, an aliquot of sample was removed immediately and neutralized with 1 M Tris buffer to stop low pH viral inactivation, then immediately quenched with diluent at 1:12 for Mega-10 or at 1:100 for Tween 20 and Tween 80 to stop viral inactivation by the detergent. The collected sample was designated as a time-zero reference. The remaining spiked eluate was returned to the water bath and the samples were collected at indicated times to evaluate the viral inactivation kinetics. The remaining X-MuLV infectivity in the samples post-inactivation treatment was determined by a TCID50 assay that is an endpoint dilution assay to quantify the amount of virus required to produce a cytopathic effect in 50% of inoculated tissue culture cells. Virus titers were estimated using the Spearman-Karber method and reported as TCID50/mL with a calculated 95% confidence interval (CI). Briefly, a sufficient number of 96-well plates with PG-4 (feline S^+L^−, ATCC#CRL-2032) cells were prepared the day before starting the viral inactivation experiments and incubated overnight in a 37° C. humidified CO2 incubator. A set of ten 3.2 fold dilution of the diluted positive control (1:100) and viral inactivated samples were prepared in a dilution block. Each set of the 11 serial dilutions of the samples were inoculated correspondingly onto wells (100 μL per well) of the first 11 columns in a 96-well plate that had been pre-seeded with PG-4 cells. The 12th column in the same plate was inoculated with the corresponding diluent to serve as non-virus negative control. The positive control was prepared by spiking the filtered neutralized protein A eluate with X-MuLV at a 1:20 ratio. The inoculated plates were then incubated in a 37° C. humidified CO2 incubator for approximate 2 hours. A volume of 100 uL of 2× assay medium (92% McCoy's 5A medium, 4% FBS, 2% Penicillin/Streptomycin, 2% L-Glutamine) was added to each well of the plates at the end of incubation. The plates were then returned to the same incubator, and continued incubation for 6 days. Each well of the plates were scored under a microscope for the presence of cytopathic effect (CPE) and the results were recorded in a scoring sheet. Virus titers were then estimated using the Spearman-Karber method and reported as TCID50/mL with a calculated 95% confidence interval (CI).

Take `CCCCCCCCCC(=O)N(C)C[C@H](O)[C@@H](O)[C@H](O)[C@H](O)CO` [Mega-10, N-Methylglucamide]: the “LRF ± 95% CL” value runs as follows: (dual treatment pH 3.91 + 0.10% Mega 10, mAb1 protein A eluate, 0 minutes) 3.74 ± 0.33; (dual treatment pH 3.91 + 0.10% Mega 10, mAb1 protein A eluate, 2.5 minutes) no less than 5.40±0.21; (dual treatment pH 3.91 + 0.10% Mega 10, mAb1 protein A eluate, 2.5 minutes, listed as Mega 10) no less than 5.40 ± 0.21; (dual treatment pH 3.91 + 0.10% Mega 10, mAb1 protein A eluate, 5 minutes) no less than 5.40 ± 0.21; (dual treatment pH 3.91 + 0.10% Mega 10, mAb1 protein A eluate, 10 minutes) no less than 5.40 ± 0.21; (dual treatment pH 3.91 + 0.10% Mega 10, mAb1 protein A eluate, 30 minutes) no less than 5.40 ± 0.21. The “LRF ± 95% CL” value is on record as 1.62 ± 0.27 (dual treatment pH 4.05 + 0.15% Mega 10, mAb2 protein A eluate, 0 minutes); 3.96 ± 0.31 (dual treatment pH 4.05 + 0.15% Mega 10, mAb2 protein A eluate, 2.5 minutes); 5.50±0.83 (dual treatment pH 4.05 + 0.15% Mega 10, mAb2 protein A eluate, 5 minutes); 5.50 ± 0.83 (dual treatment pH 4.05 + 0.15% Mega 10, mAb2 protein A eluate, 5 minutes, listed as Mega 10); ≥5.81 ± 0.18^ (dual treatment pH 4.05 + 0.15% Mega 10, mAb2 protein A eluate, 10 minutes); ≥5.81 ± 0.18^ (dual treatment pH 4.05 + 0.15% Mega 10, mAb2 protein A eluate, 30 minutes). Further, the “time to inactivate X-MuLV to the level below the detection limit” value (dual treatment: mAb1 protein A eluate pH 3.91 with 0.1% Mega-10, 16° C. (240 minutes by pH 3.91 alone at 18° C.)) was 2.5 min. Further, under “dual treatment: mAb2 protein A eluate pH 4.05 with 0.15% Mega-10, 16° C. (120 minutes by pH 4.0 alone at 18° C.)”, the “time needed for inactivating X-MuLV to the level below the detection limit” value came to 10 min.
